The record followed here is patent US20240423215A1, “COMPOSITION FOR COATING PLANT SEED” (priority 2022, published 2024).

Assay type in all cases: in vivo
Assay [1] relates to wheat. As to the kind of experiment: Cultivation of wheat from coated seeds under salt stress conditions (Example 4). As to conditions: fresh weight of aboveground part. The protocol: Wheat seeds (100 g; the variety: Yumechikara) were coated with 800 μl of a coating solution containing tryptophan, oxidized glutathione, polyvinyl alcohol, and a coloring dye in water using a coater (SATEC). Coating was performed using either or both of tryptophan in an amount of 0 g, 0.225 g, 2.25 g, 5 g, 10 g, or 50 g and oxidized glutathione in an amount of 0 g, 15 g, or 300 g per ton of seeds.
Culture soil containing sodium chloride at 4.0 g/l of the soil was filled into 7.5-cm pots, and the coated wheat seeds were seeded at 1 grain/pot. Cultivation was performed in a glass greenhouse, and inspection was performed 16 days after seeding. The height and the fresh weight of the aboveground part were measured, and the density (the fresh weight of the aboveground part/the height) was determined. The test was repeated 9 times, and the average was determined.
(§1) The measured fresh weight of the aboveground part of plants in groups each treated with different amounts of tryptophan and oxidized glutathione was indicated as the rate of change (%), relative to the fresh weight of the aboveground part of plants in the test group (control group) treated with a coating solution not containing tryptophan or oxidized glutathione. […]

The next assay concerns rice. Kind of assay: Cultivation of rice from coated seeds under non-stress conditions (Example 7). As to conditions: 3 weeks after seeding. The protocol: Rice seeds (100 g; the variety: Emimaru) were coated with 800 μl of a coating solution containing tryptophan, oxidized glutathione, polyvinyl alcohol, and a coloring dye in water using a coater (SATEC). Coating was performed using either or both of tryptophan in an amount of 0 g, 2.25 g, or 5 g and oxidized glutathione in an amount of 0 g or 75 g per ton of seeds.
Culture soil was filled into 12-cm vinyl pots, and the coated rice seeds were seeded at 5 grains/pot. Cultivation was performed in a glass greenhouse, and the fresh weight of the aboveground part was inspected 21 days after seeding. The test was repeated 6 times, and the average was determined.
(§2) The measured fresh weight of the aboveground part of plants in groups each treated with different amounts of tryptophan and oxidized glutathione was indicated as the rate of change (%), relative to the fresh weight of the aboveground part of plants in the test group (control group) treated with a coating solution not containing tryptophan or oxidized glutathione.

In assay [2] the test system is Zea mays. Kind of assay: Cultivation of Zea mays from coated seeds under salt stress conditions (Example 2). As to conditions: 3 weeks after seeding, fresh weight of aboveground part. The method, then:
Dent corn seeds (100 g; the variety: Snow-dent “Otoha”) were coated with 800 μl of a coating solution containing tryptophan, oxidized glutathione, polyvinyl alcohol, and a coloring dye in water using a coater (SATEC). Coating was performed using either or both of tryptophan in an amount of 0 g, 0.009 g, 0.045 g, 0.1225 g, 0.225 g, 0.45 g, or 5 g and oxidized glutathione in an amount of 0 g, 15 g, or 75 g per ton of seeds.
Culture soil containing sodium chloride at 6.0 g/l of the soil was filled into 7.5-cm pots, and the coated dent corn seeds were seeded at 1 grain/pot. Cultivation was performed in a glass greenhouse, and inspection was performed 21 days after seeding. The height, the fresh weight of the aboveground part, and the number of leaves were measured, and the density (the fresh weight of the aboveground part/the height) was determined. The test was repeated 9 times, and the average was determined.
The rates of changes (%) in the height, the number of leaves, the fresh weight of the aboveground part, and the density (the fresh weight of the aboveground part/the height) measured or determined for the test groups, relative to those of the control group were determined.

Assay [3] relates to wheat. As to the kind of experiment: Cultivation of wheat from coated seeds under low-temperature stress conditions (Example 9). To be noted: 6 weeks after seeding. The protocol:
Wheat seeds (100 g; the variety: Yumechikara) were coated with 800 μl of a coating solution containing tryptophan, oxidized glutathione, polyvinyl alcohol, and a coloring dye in water using a coater (SATEC). Coating was performed using either or both of 5 g of tryptophan per MT-seeds and 75 g of oxidized glutathione per MT-seeds. Culture soil was filled into 7.5-cm pots, and the coated wheat seeds were seeded at 1 grain/pot. Cultivation was performed in a glass greenhouse before germination, the germinated plants were transferred to and cultivated in an artificial climate chamber with a diurnal period of 12 hours set at 10° C. and a nocturnal period of 12 hours set at 5° C., and inspection was performed 6 weeks after seeding. The dry weight of the aboveground part and the dry weight of the underground part were measured. The test was repeated 8 times, and the average was determined.
In the table, “%” indicates a value calculated relative to the weight without treatment, which is designated as 100%. […] With the use of glutathione in combination with tryptophan, in addition, the dry weight of the aboveground part was increased by 17% and the dry weight of the underground part was increased by 24%, relative to the control group. Such increase was significant. […] As described above, use of glutathione in combination with tryptophan would exert effects of promoting the healthy growth under low-temperature stress conditions.

The test system of assay [4] is Zea mays. Kind of assay: Cultivation of Zea mays from seeds coated with tryptophan and reduced glutathione under salt stress conditions (Comparative Example 2). As to conditions: salt stress (NaCl 6.0 g/l soil); 3 weeks after seeding; Trp 0.225 g and/or GSH 1-75 g per MT-seeds; FIG. 15.
Method: Dent corn seeds (100 g; the variety: Snow-dent “Otoha”) were coated with 800 μl of a coating solution containing 0.225 g of tryptophan per MT-seeds, 0, 1, 5, 15, or 75 g of reduced glutathione per MT-seeds, polyvinyl alcohol, and a coloring dye in water using a coater (SATEC).
Culture soil containing sodium chloride at 6.0 g/l of the soil was filled into 7.5-cm pots, and the coated dent corn seeds were seeded at 1 grain/pot. Cultivation was performed in a glass greenhouse, and inspection was performed 21 days after seeding. The fresh weight of the aboveground part was measured. The test was repeated 9 times, and the average was determined.
The fresh weight of the aboveground part measured for the test groups treated with different amounts of tryptophan and reduced glutathione was indicated as the rate of change (%), relative to that of the test group (the control group) treated with a coating solution not containing tryptophan or reduced glutathione.
The subject of assay [5] is Zea mays. Kind of assay: Cultivation of Zea mays from seeds coated with tryptophan and reduced glutathione under non-stress conditions (Comparative Example 1). To be noted: 3 weeks after seeding, Trp 0.225 g and/or GSH 1-75 g per MT-seeds, FIG. 14.
Method: Dent corn seeds (100 g; the variety: Snow-dent “Otoha”) were coated with 800 μl of a coating solution containing 0.225 g of tryptophan per ton of seeds (i.e., MT-seeds), 0, 1, 5, 15, or 75 g of reduced glutathione per MT-seeds, polyvinyl alcohol, and a coloring dye in water using a coater (SATEC).
Culture soil was filled into 12-cm vinyl pots, and the coated dent corn seeds were seeded at 4 grains/pot. After germination, a differently grown strain was thinned to retain 3 strains in a pot. Cultivation was performed in a glass greenhouse, and inspection was performed 21 days after seeding. The fresh weight of the aboveground part was measured. The test was repeated 6 times, and the average was determined.
The test system of assay [6] is Zea mays. As to the kind of experiment: Field test of Zea mays, ear yield (Example 8). As to conditions: 0.25 g tryptophan and/or 75 g GSSG per ton of seeds. The protocol:
As a control group, seeds without coating were prepared.
• Location: the Wilderen MAR field, the Kingdom of Belgium • Variety: Like IT • Date of seeding: Apr.
Cultivation was performed in accordance with the conventional fertilization management technique and pest management technique, and the yield was inspected. • Inspection of yield: 120 strains/group; the number of repetition: 4

Assay [7] has as its system wheat. As to the kind of experiment: Cultivation of wheat from coated seeds under non-stress conditions (Example 3). To be noted: 2 weeks after seeding, fresh weight of aboveground part. The protocol:
Wheat seeds (100 g, Quintus) were coated with 800 μl of a coating solution containing tryptophan, oxidized glutathione, polyvinyl alcohol, and a coloring dye in water using a coater (SATEC). Coating was performed using either or both of tryptophan in an amount of 0 g, 0.01 g, 0.25 g, 5 g, or 10 g and oxidized glutathione in an amount of 0 g, 6 g, or 300 g per ton of seeds.
Culture soil was filled into a 96-well cell tray, the coated wheat seeds were seeded at 1 grain/cell, and inspection was performed 2 weeks after seeding. The height and the fresh weight of the aboveground part were measured, and the density (the fresh weight of the aboveground part/the height) was determined. Groups each consisting of 6 plants were subjected to the test, and the test was repeated 4 times.
as §2
The density (the fresh weight of the aboveground part/the height) of the test groups was indicated as the rate of change (%), relative to the density of the control group.

The subject of assay [8] is Zea mays. As to the kind of experiment: Cultivation of Zea mays from coated seeds under non-stress conditions (Example 1). As to conditions: 3 weeks after seeding. The protocol: Dent corn seeds (100 g; the variety: Snow-dent “Otoha”) were coated with 800 μl of a coating solution containing tryptophan, oxidized glutathione, polyvinyl alcohol, and a coloring dye in water using a coater (SATEC). Coating was performed using either or both of tryptophan in an amount of 0 g, 0.045 g, 0.1225 g, 0.45 g, 5 g, or 50 g and oxidized glutathione in an amount of 0 g, 3 g, 15 g, 150 g, or 300 g per ton of seeds.
Culture soil was filled into 12-cm vinyl pots, and the coated dent corn seeds were seeded at 4 grains/pot. After germination, a differently grown strain was thinned to retain 3 strains in a pot. Cultivation was performed in a glass greenhouse, and inspection was performed 21 days after seeding. The height and the fresh weight of the aboveground part were measured, and the density (the fresh weight of the aboveground part/the height) was determined. The test was repeated 6 times, and the average was determined.
as §1

In a further assay the test system is soybean. Kind of assay: Cultivation of soybean from coated seeds under salt stress conditions (Example 6). As to conditions: 3 weeks after seeding, fresh weight of aboveground part. The protocol:
Soybean seeds (100 g; the variety: Fukuyutaka) were coated with 800 μl of a coating solution containing tryptophan, oxidized glutathione, polyvinyl alcohol, and a coloring dye in water using a coater (SATEC). Coating was performed using either or both of tryptophan in an amount of 0 g, 0.045 g, 0.225 g, 0.45 g, or 5 g and oxidized glutathione in an amount of 0 g, 15 g, or 75 g per ton of seeds.
Culture soil containing sodium chloride at 1.0 g/l of the soil was filled into 7.5-cm pots, and the coated soybean seeds were seeded at 1 grain/pot. Cultivation was performed in a glass greenhouse, and inspection was performed 21 days after seeding. The fresh weight of the aboveground part, the density (the fresh weight of the aboveground part/the height), and the dry weight of the underground part were measured. The test was repeated 9 times, and the average was determined.
as §1

[9] abbreviates: low-temperature stress (10° C./5° C.), Trp 5 g and/or GSSG 75 g per MT-seeds.
[10] abbreviates: low-temperature stress, Trp 5 g and/or GSSG 75 g per MT-seeds.

With `N[C@@H](Cc1c[nH]c2ccccc12)C(=O)O` [tryptophan, L-tryptophan], the “effects of promoting the initial growth” value with wheat [1] was “No effects of promoting the initial growth were attained”; in the assay with rice, “Effects of promoting the initial growth were attained to some extent”; in the assay on Zea mays [2], “No effects of promoting the initial growth were attained”; with wheat [3] (low-temperature stress), “not observed”; in the assay on wheat [7], “No effects of promoting the initial growth were attained”; with Zea mays [8] (fresh weight of aboveground part) it was “No effects of promoting the initial growth were attained”. Besides, in the assay with soybean, the “effects of promoting the initial growth” value is “No effects of promoting the initial growth were attained”. Moreover, the “Dry weight of aboveground part” value in the assay on wheat [3] (setting [9]) is 0.24 g. Further, the “Dry weight of underground part” value in the assay on wheat [3] (setting [9]) came to 0.08 g. In addition, the “Dry weight of aboveground part, relative to without treatment (100%)” value with wheat [3] (setting [10]) was found to be 97%. The “Dry weight of underground part, relative to without treatment (100%)” value in the assay with wheat [3] (setting [10]) was 101%. The “rate of change in the fresh weight of the aboveground part relative to control group” value with Zea mays [4] was found to be 1%; with Zea mays [5] it was 4%. Also, the “ear yield relative to the control group without coating (100%)” value in the assay with Zea mays [6] (FIG. 16) is listed as 100.4%. Also, in the assay on Zea mays [6] (relative to control group), the “increase in the ear yield” value is reported as “An increase was not observed in the yield”. Moreover, the “increase in the fresh weight of the aboveground part compared with no treatment” value in the assay on Zea mays [8] (either or both of 0.1225 g tryptophan and 150 g GSSG per ton of seeds) is 3%.
